Measured values published in patent US20030212102A1, “Novel solid dispersion compositions” (priority 2002, published 2003).
In brackets after ≈: the same amount, converted by molar mass.

Experiment: Solubility and dissolution in simulated gastric fluid, USP Apparatus 2, non-sink conditions
Format: physicochemical
Settings: simulated gastric fluid without enzymes, 37 °C, thermodynamic from solid; simulated gastric fluid without enzyme, pH 1.2; read-out: in vitro solubility
Experimental: Physical matrix mixtures and melted carriers were made and tested to compare the baseline solubility and background absorbance to that of the solid dispersions. The resultant solid dispersion were yellow-orange hard solids with some air pockets formed by the cooling process. The dispersion solubility and dissolution rate were analyzed by USP Apparatus 2 dissolution. The dissolution was performed under the following conditions: SGF dissolution media, 0.1 M HCL without enzymes pH 1.2; non-sink conditions of 350-370 mL media; paddle speed of 50 rpm; temperature of 37° C.; 10 mL sample pull not replaced. Analysis of the (S)-(−)-N-(α-Ethylbenzyl)-3-hydroxy-2-phenylquinoline-4-carboxamide was performed using a UV spectrophotometer at 359 nm compared to standard solutions.

SMILES: CC[C@H](NC(=O)c1c(O)c(-c2ccccc2)nc2ccccc12)c1ccccc1 [(S)-(−)-N-(α-Ethylbenzyl)-3-hydroxy-2-phenylquinoline-4-carboxamide]
- solubility: 31 µg/mL (≈ 81.1 µM)
